# In US11358930B2, “Selective potassium channel agonists” (University of Pittsburgh—Of the Commonwealth System of …, priority 2018, dated 2022):
# “Also recorded” adds a separate entry of the source.
# What was measured:
# Kv7.2/Kv7.3 = target: T1, Kv7.2/Kv7.3 (Homo sapiens, UniProt O43525+O43526); assay: Automated electrophysiology IonWorks Barracuda (IWB) agonist assay in HEK293 cells, Kv7.2/Kv7.3; format: cell-based; details: for selectivity index SI = EC2x(Kv7.4/Kv7.5)/EC2x(Kv7.2/Kv7.3): higher SI = better selectivity for Kv7.2/Kv7.3; for EC2x at Kv7.2/Kv7.3 (agonist concentration that doubles the conductance at the voltage leading to 15% channel activation): HEK293 cells, IWB, 10-point concentration-response
# T1 construct: expressed in transfected cells; host or cells: HEK293
# Experimental: (§1) Biological evaluation of the new analogs, including RL-81 as a positive standard was performed in the Eli Lilly Open Innovation Drug Discovery (OIDD) program (now discontinued; see https://openinnovation.lilly.com/dd/login.jsp). Ion channel agonistic potency was determined in a high-throughput assay using the automated electrophysiology IonWorks® Barracuda™ (IWB) platform (Molecular Devices, LLC) in HEK293 cells. The resulting 10-point concentration-response curves provide a measure of compound efficacy by determining the agonist concentration that doubles the conductance at the voltage leading to 15% channel activation (EC2x).
# Since the primary interest was in optimizing central (Kv7.2/Kv7.3) over peripheral Kv7.4/Kv7.5) tissue activities, a selectivity index (SI) was calculated as the inverse ratio of the EC2x values for these two channel types: SI=EC2x(Kv7.4/Kv7.5)/EC2×(Kv7.2/Kv7.3) The higher the SI ratio, the better the selectivity of the agent for the Kv7.2/Kv7.3 channels.
# Kv7.4 = target: T2, Kv7.4 (Homo sapiens, UniProt P56696); assay: Automated electrophysiology IonWorks Barracuda (IWB) agonist assay in HEK293 cells, Kv7.4; format: cell-based
# T2 construct: expressed in transfected cells; host or cells: HEK293
# Experimental: as §1
# all tested Kv7 channels = assay: Automated electrophysiology IonWorks Barracuda (IWB) agonist assay in HEK293 cells, all tested Kv7 channels; format: cell-based; details: for activity at all Kv7 channel types (in words): HEK293 cells, IWB
# Experimental: as §1
# Kv7.4/Kv7.5 = target: T3, Kv7.4/Kv7.5 (Homo sapiens, UniProt P56696+Q9NR82); assay: Automated electrophysiology IonWorks Barracuda (IWB) agonist assay in HEK293 cells, Kv7.4/Kv7.5; format: cell-based
# T3 construct: expressed in transfected cells; host or cells: HEK293
# Experimental: as §1
# Kv7.3/Kv7.5 = target: T4, Kv7.3/Kv7.5 (Homo sapiens, UniProt O43525+Q9NR82); assay: Automated electrophysiology IonWorks Barracuda (IWB) agonist assay in HEK293 cells, Kv7.3/Kv7.5; format: cell-based
# T4 construct: expressed in transfected cells; host or cells: HEK293
# Experimental: as §1
# KCNQ2/3 = KCNQ2/3 (Homo sapiens, UniProt O43525+O43526); details: read-out: EC50 (KCNQ2/3 activator); cited from earlier work
compound,measurement,setting,value
"Nc1c(NC(=O)OC2CC2)cc(F)c(NCc2ncc(C(F)(F)F)cc2F)c1F [RL-01, Cyclopropyl (2-amino-3,5-difluoro-4-(((3-fluoro-5-(trifluoromethyl)pyridin-2-yl)methyl)amino)phenyl)carbamate]",selectivity / potency of 2-pyridyl analogs (in words),Kv7.2/Kv7.3,either low selectivity or low potency
"CCOC(=O)Nc1ccc(NCc2cccc(S(F)(F)(F)(F)F)c2)c(F)c1N [RL-02, Ethyl (2-amino-3-fluoro-4-((3-(pentafluoro-λ^6-sulfanyl)benzyl)amino)phenyl)carbamate]",selectivity index SI = EC2x(Kv7.4/Kv7.5)/EC2x(Kv7.2/Kv7.3),Kv7.2/Kv7.3,1.8
"Nc1c(F)c(NCc2ncc(C(F)(F)F)cc2F)cc(F)c1NC(=O)OC1CC1 [RL-12, Cyclopropyl (2-amino-3,6-difluoro-4-(((3-fluoro-5-(trifluoromethyl)pyridin-2-yl)methyl)amino)phenyl)carbamate]",agonist activity at Kv7.4 (in words),Kv7.4,lacked activity
same,selectivity index SI = EC2x(Kv7.4/Kv7.5)/EC2x(Kv7.2/Kv7.3),Kv7.2/Kv7.3,> 10
same,agonist activity at other channels (in words),all tested Kv7 channels; channels other than Kv7.2/Kv7.3,no detectable agonist activity
same,agonist activity at Kv7.4/Kv7.5 (in words),Kv7.4/Kv7.5,lacked activity
same,agonist activity at Kv7.3/Kv7.5 (in words),Kv7.3/Kv7.5,lacked activity
"CCOC(=O)Nc1ccc(NCc2ccc(C(F)(F)F)cc2F)c(F)c1N [RL-18, Ethyl (2-amino-3-fluoro-4-((2-fluoro-4-(trifluoromethyl)benzyl)amino)phenyl)carbamate]",EC2x at Kv7.2/Kv7.3 (agonist concentration that doubles the conductance at the voltage leading to 15% channel activation),Kv7.2/Kv7.3,0.18 ± 0.11 µM
same,selectivity index SI = EC2x(Kv7.4/Kv7.5)/EC2x(Kv7.2/Kv7.3),Kv7.2/Kv7.3,1.7
"CCOC(=O)Nc1ccc(NCc2ccc(C(F)(F)F)c(C#N)n2)c(F)c1N [RL-23, Ethyl (2-amino-4-(((6-cyano-5-(trifluoromethyl)pyridin-2-yl)methyl)amino)-3-fluorophenyl)carbamate]",selectivity / potency of 2-pyridyl analogs (in words),Kv7.2/Kv7.3,either low selectivity or low potency
"CCOC(=O)Nc1ccc(NCc2ccc(C(F)(F)F)nc2)c(F)c1N [RL-24, Ethyl (2-amino-3-fluoro-4-(((6-(trifluoromethyl)pyridin-3-yl)methyl)amino)phenyl)carbamate]",potency compared to 2-pyridyl isomers RL-31 and RL-68 (in words),Kv7.2/Kv7.3,essentially equivalent potency
same,selectivity compared to 2-pyridyl isomers RL-31 and RL-68 (in words),Kv7.2/Kv7.3,slightly increased selectivity
"CCOC(=O)Nc1ccc(NCc2ccc(C(F)(F)F)cn2)c(F)c1N [RL-31, Ethyl (2-amino-3-fluoro-4-(((5-(trifluoromethyl)pyridin-2-yl)methyl)amino)phenyl)carbamate]",selectivity / potency of 2-pyridyl analogs (in words),Kv7.2/Kv7.3,either low selectivity or low potency
"CC(C)OC(=O)Nc1ccc(NCc2ccc(C(F)(F)F)cc2)c(F)c1N [RL-32, Isopropyl (2-amino-3-fluoro-4-((4-(trifluoromethyl)benzyl)amino)phenyl)carbamate]",selectivity index SI = EC2x(Kv7.4/Kv7.5)/EC2x(Kv7.2/Kv7.3),Kv7.2/Kv7.3,31
same,potency at Kv7.2/Kv7.3 compared with RL-81 (more potent),Kv7.2/Kv7.3; relative to RL-81,slightly increased the potency
same,SI improvement over RL-81,Kv7.2/Kv7.3; versus SI=0.3 of RL-81,100 ×
same,EC2x at Kv7.4/Kv7.5,Kv7.4/Kv7.5,4.98 µM
"Nc1c(NC(=O)OC2CC2)cc(F)c(NCc2ccc(C(F)(F)F)cc2F)c1F [RL-36, Cyclopropyl (2-amino-3,5-difluoro-4-((2-fluoro-4-(trifluoromethyl)benzyl)amino)phenyl)carbamate]",agonist activity at Kv7.4 (in words),Kv7.4,lacked agonist activity
same,selectivity index SI = EC2x(Kv7.4/Kv7.5)/EC2x(Kv7.2/Kv7.3),Kv7.2/Kv7.3,> 10
same,agonist activity at Kv7.4/Kv7.5 (in words),Kv7.4/Kv7.5,lacked agonist activity
same,agonist activity at Kv7.3/Kv7.5 (in words),Kv7.3/Kv7.5,lacked agonist activity
"Nc1c(F)c(NCc2ccc(C(F)(F)F)cc2F)cc(F)c1NC(=O)OC1CC1 [RL-46, Cyclopropyl (2-amino-3,6-difluoro-4-((2-fluoro-4-(trifluoromethyl)benzyl)amino)phenyl)carbamate]",selectivity index SI = EC2x(Kv7.4/Kv7.5)/EC2x(Kv7.2/Kv7.3),Kv7.2/Kv7.3,> 7
same,activity at all Kv7 channel types (in words),all tested Kv7 channels,moderately active
"Nc1c(F)c(NCc2ccc(C(F)(F)F)cc2F)c(F)c(F)c1NC(=O)OC1CC1 [RL-50, Cyclopropyl (2-amino-3,5,6-trifluoro-4-((2-fluoro-4-(trifluoromethyl)benzyl)amino)phenyl)carbamate]",activity at all Kv7 channel types (in words),all tested Kv7 channels,lost all activity; also recorded: inactive
"Nc1c(NC(=O)OC2CC2)ccc(NCc2ccc(C(F)(F)F)cc2)c1F [RL-56, Cyclopropyl (2-amino-3-fluoro-4-((4-(trifluoromethyl)benzyl)amino)phenyl)carbamate]",EC2x at Kv7.2/Kv7.3 (agonist concentration that doubles the conductance at the voltage leading to 15% channel activation),Kv7.2/Kv7.3,0.11 ± 0.02 µM
same,selectivity index SI = EC2x(Kv7.4/Kv7.5)/EC2x(Kv7.2/Kv7.3),Kv7.2/Kv7.3,2.5
same,potency at Kv7.2/Kv7.3 compared with RL-81 (more potent),Kv7.2/Kv7.3; relative to RL-81,ca. 3
"Nc1c(NC(=O)OC2CC2)ccc(NCc2ccc(C(F)(F)F)nc2)c1F [RL-67, Cyclopropyl (2-amino-3-fluoro-4-(((6-(trifluoromethyl)pyridin-3-yl)methyl)amino)phenyl)carbamate]",potency compared to 2-pyridyl isomers RL-31 and RL-68 (in words),Kv7.2/Kv7.3,essentially equivalent potency
same,selectivity compared to 2-pyridyl isomers RL-31 and RL-68 (in words),Kv7.2/Kv7.3,slightly increased selectivity
"Nc1c(NC(=O)OC2CC2)ccc(NCc2ccc(C(F)(F)F)cn2)c1F [RL-68, Cyclopropyl (2-amino-3-fluoro-4-(((5-(trifluoromethyl)pyridin-2-yl)methyl)amino)phenyl)carbamate]",selectivity / potency of 2-pyridyl analogs (in words),Kv7.2/Kv7.3,either low selectivity or low potency
"CCOC(=O)Nc1cc(F)c(NCc2ccc(C(F)(F)F)cc2)cc1N [RL-72, Ethyl (2-amino-5-fluoro-4-((4-(trifluoromethyl)benzyl)amino)phenyl)carbamate]",EC2x at Kv7.4,Kv7.4,4.65 µM
same,EC2x at Kv7.2/Kv7.3 (agonist concentration that doubles the conductance at the voltage leading to 15% channel activation),Kv7.2/Kv7.3,1.26 µM
same,selectivity index SI = EC2x(Kv7.4/Kv7.5)/EC2x(Kv7.2/Kv7.3),Kv7.2/Kv7.3,> 7
same,reduction of potency (EC2x) at Kv7.2/Kv7.3 versus RL-81,Kv7.2/Kv7.3; relative to RL-81,5 fold
same,EC2x at Kv7.4/Kv7.5,Kv7.4/Kv7.5,> 10 µM
same,EC2x at Kv7.3/Kv7.5,Kv7.3/Kv7.5,> 10 µM
"CCOC(=O)Nc1ccc(NCc2cccc(C(F)(F)F)c2)c(F)c1N [RL-73, Ethyl (2-amino-3-fluoro-4-((3-(trifluoromethyl)benzyl)amino)phenyl)carbamate]",selectivity index SI = EC2x(Kv7.4/Kv7.5)/EC2x(Kv7.2/Kv7.3),Kv7.2/Kv7.3,4.7
same,potency at Kv7.2/Kv7.3 compared with RL-81 (more potent),Kv7.2/Kv7.3; relative to RL-81,twice as potent
"CCOC(=O)Nc1cc(C(F)(F)F)c(NCc2ccc(C(F)(F)F)cc2)c(F)c1N [RL-073, Ethyl (2-amino-3-fluoro-5-(trifluoromethyl)-4-((4-(trifluoromethyl)benzyl)amino)phenyl)carbamate]",activity at all Kv7 channel types (in words),all tested Kv7 channels,completely abrogated activity
"CCOC(=O)Nc1ccc(NCc2ccc(C(F)(F)F)cc2)c(F)c1N [RL-81, Ethyl (2-amino-3-fluoro-4-((4-(trifluoromethyl)benzyl)amino)phenyl)carbamate]",EC2x at Kv7.4,Kv7.4,0.10 µM
same,selectivity index SI = EC2x(Kv7.4/Kv7.5)/EC2x(Kv7.2/Kv7.3),Kv7.2/Kv7.3,0.3
same,"efficacy versus flupirtine (FP), times higher",all tested Kv7 channels; at all tested Kv7 channels,8-50 times
same,"efficacy versus retigabine (RG), in words",all tested Kv7 channels; at all tested Kv7 channels,comparable
same,EC50,KCNQ2/3,260 nM
same,EC2x at Kv7.3/Kv7.5,Kv7.3/Kv7.5,0.29 µM
"CCOC(=O)Nc1ccc(NCc2ccc(F)cc2)nc1N [flupirtine, reference compound]",selectivity index SI = EC2x(Kv7.4/Kv7.5)/EC2x(Kv7.2/Kv7.3),Kv7.2/Kv7.3,1.8
same,EC50,KCNQ2/3,2000 nM
CCOC(=O)Nc1ccc(NCc2ccc(F)cc2)cc1N [retigabine],EC50,KCNQ2/3,330 nM
